According to patent publication US20040106104A1, “Viral envelope mediated fusion assay” (priority 2002, published 2004):

What was measured:
HIV LAI envelope = HIV LAI envelope (Human immunodeficiency virus type 1 group M subtype B, UniProt P03377); settings: read-out: BMS-806 EC50 TOPO Cell Fusion, linear envelope expression element, Hela H1 effector and target cells, luciferase
Protocol: (§1) Preparation of Linear HIV Envelope Expression Element HIV viral RNA was isolated from 140 μl culture supernatant using a QIAamp Viral RNA Mini Kit (Qiagen Inc). The viral RNA was eluted in 60 μl of elution buffer. First strand cDNA was synthesized using the SuperScript First-Strand Synthesis system for RT-PCR (Invitrogen Corporation) using 8 μl of viral RNA and random hexamers according to the manufactures instructions. The HIV envelope gene was PCR amplified using 4 μl of first strand CDNA, primers BF17 5′-[sequence]-3′ and ENV-N 5′-[sequence]-3′ and a Platimun Taq DNA Polymerase High Fidelity Kit (Invitrogen) in a 100 μl reaction. The PCR product was purified using a QIAquick PCR Purification Kit (Qiagen Inc, Valencia, Calif.). In order to introduce the proper ends for the TOPO reaction 1 μl of the first PCR reaction was PCR amplified using primers:
(§2) in 100 μl as before. The PCR reaction was run on a 0.7% agarose gel and the about 3 kb HIV envelope gene was gel purified using a QIAquick Gel Extraction KIT (Qiagen Inc). The 5′ CMV promoter element and 3′ SV40 polyadenylation element were added to 700 ng of the HIV envelope PCR fragment using a TOPO Tools Kit (Invitrogen) and the final PCR product was purified as before. […]

HIV LAI whole virus = test: Whole virus assay, LAI; type: cell-based; settings: read-out: BMS-806 EC50 Whole Virus
HIV NL4-3 whole virus = test: Whole virus assay, NL4-3; type: cell-based; settings: read-out: BMS-806 EC50 Whole Virus
HIV 93US157 whole virus = test: Whole virus assay, 93US157; type: cell-based; settings: 93US157, source PBMC; read-out: BMS-806 EC50 Whole Virus
HIV envelope 92US072 = test: TOPO cell mediated fusion assay, clinical envelope 92US072; type: cell-based; settings: clinical envelope 92US072, source PBMC; read-out: BMS-806 EC50 TOPO Fusion
Protocol: (§3) The effector cells were prepared by transfecting 1.7×10^6 Hela H1 cells in a T75 flask with the linear viral envelope expression element and pTET-Off using a Lipofectamine Plus Kit (Invitrogen) as follows. 3 μg of the linear envelope expression vector and 3 μg of pTET-OFF were mixed with 750 μl of D-MEM media. 49 μl of Plus Reagent was added to the DNA mixture, the solution was mixed. After 15 minutes at room temperature a solution consisting of 750 μl D-MEM and 30 μl of lipofectamine was added to the DNA solution. The solution was mixed and incubated at room temperature for 15 minutes. The media from 1.7×10^6 Hela H1 cells ion a T75 flask was removed, the cells were washed with 15 ml of D-PBS, and 6 ml of D-MEM without serum was added to the cells. The DNA/lipofectamine solution was mixed, added to the cells and the cells were then incubated at 37° C. in the presence of 5% CO2. After 4 hours, the transfection mixture was removed and replaced with 15 ml of D-MEM 10% FBS and incubated overnight at 37° C. in the presence of 5% CO2.
(§4) Preparation of Target Cells Hela H1 cells expressing CD4, CXCR4, CCR5, and containing an integrated copy of a TRE/luciferase reporter gene were used as target cells. These cells were maintained in DMEM containing 10% FBS, 0.2 mg/ml G418, 0.4 mg/ml zeocin, 0.1 mg/ml hygromycin B, and 1.5 μg/ml puromycin. […]

HIV envelope BRH04821 = test: TOPO cell mediated fusion assay, clinical envelope BRH04821; type: cell-based; settings: clinical envelope BRH04821, source serum; read-out: BMS-806 EC50 TOPO Fusion
Protocol: as §3, §4

HIV BRH04821 whole virus = test: Whole virus assay, BRH04821; type: cell-based; settings: BRH04821, source serum; read-out: BMS-806 EC50 Whole Virus
HIV envelope 93US157 = test: TOPO cell mediated fusion assay, clinical envelope 93US157; type: cell-based; settings: clinical envelope 93US157, source PBMC; read-out: BMS-806 EC50 TOPO Fusion
Protocol: as §3, §4

HIV BRH04820 whole virus = test: Whole virus assay, BRH04820; type: cell-based; settings: BRH04820, source serum; read-out: BMS-806 EC50 Whole Virus
HIV 92US072 whole virus = test: Whole virus assay, 92US072; type: cell-based; settings: 92US072, source PBMC; read-out: BMS-806 EC50 Whole Virus
HIV envelope BRH04820 = test: TOPO cell mediated fusion assay, clinical envelope BRH04820; type: cell-based; settings: clinical envelope BRH04820, source serum; read-out: BMS-806 EC50 TOPO Fusion
Protocol: as §3, §4

HIV NL4-3 envelope = test: TOPO cell mediated fusion assay, NL4-3 envelope; type: cell-based; settings: envelope NL4-3; linear envelope expression element; Hela H1 effector and target cells, luciferase; read-out: BMS-806 EC50 TOPO Cell Fusion
Protocol: as §1, §2

COc1ccnc2[nH]cc(C(=O)C(=O)N3CCN(C(=O)c4ccccc4)C[C@H]3C)c12 [BMS-806] was tested, and the EC50 (HIV LAI envelope) was 3.5 nM, the EC50 (HIV LAI whole virus) was 2.5 nM and the EC50 (HIV NL4-3 whole virus) was 2.1 nM. For the same compound, the EC50 (HIV 93US157 whole virus) was 3.9 nM, the EC50 (HIV envelope 92US072) was 818 nM and the EC50 (HIV envelope BRH04821) was 2.7 nM. The EC50 (HIV BRH04821 whole virus) was 5.3 nM, the EC50 (HIV envelope 93US157) was 2.3 nM and the EC50 (HIV BRH04820 whole virus) was 5.5 nM. The EC50 (HIV 92US072 whole virus) was 336 nM, the EC50 (HIV envelope BRH04820) was 5.5 nM and the EC50 (HIV NL4-3 envelope) was 5.7 nM.
